pIC50: −log10 of the molar value.
How the values were obtained:
Mus musculus = organism: Mus musculus; experiment: Effective dose required for anticonvulsant activity against pentylenetetrazole-induced seizures in mice; type: functional
[1] = target: GABA-A receptor; anion channel; experiment: Displacement of [35S]TBPS from Gamma-aminobutyric acid A (GABA-A) receptor of rat cerebral cortex; type: tissue-based
[2] = Toxic dose at which 50 percent of the mice failed the rotarod toxicity test; type: organism-based; settings: mouse, in vivo

SMILES	ED50 (Mus musculus)	pIC50 [1]	TD50 [2]
C[C@@H]1CC(=O)[C@H]2O[C@@H]1OC2(C)C	110 mg/kg	2.55	–
C[C@H]1CC(=O)[C@@H]2O[C@H]1OC2(C)C	145 mg/kg	2.51	–
CCC1(C)CCOC1=O (stereo not drawn)	–	–	> 500 mg/kg
C=CC(C)(C)c1cccc2[nH]c3c(c12)C[C@@H]1CC[C@@]2(O)C4=CC(=O)[C@@H]5O[C@@]4(CC[C@]2(C)[C@@]31C)OC5(C)C	–	5.37	–
CC1CC(=O)C2OC1(C)OC2(C)C (stereo not drawn)	140 mg/kg	2.64	> 300 mg/kg
CC1CC(=O)C2OC1OC2(C)C (stereo not drawn)	131 mg/kg	2.52	> 300 mg/kg
CCC1CCCCC1=O (stereo not drawn)	140 mg/kg	2.92	245 mg/kg
CC1(C)OC2CCC(=O)C1O2 (stereo not drawn)	192 mg/kg	2.29	> 300 mg/kg
CC1(C)OC2C=CC(=O)C1O2 (stereo not drawn)	> 300 mg/kg	–	< 100 mg/kg
CC12CCC(=O)C(O1)C(C)(C)O2 (stereo not drawn)	247 mg/kg	2.50	> 300 mg/kg

Reference: ChEMBL document CHEMBL1128119, “Partial structures of the fungal toxin aflatrem, methyl-substituted 6,8-dioxabicyclo[3.2.1]octan-2-ones have anticonvulsant activity” (Bioorg Med Chem Lett, 1995)
